Data published in ChEMBL document CHEMBL4138123, “Design, synthesis and biological evaluation of novel pyrazolochalcones as potential modulators of PI3K/Akt/mTOR pathway and inducers of apoptosis in breast cancer cells” (Eur J Med Chem, 2017).

Tests used:
Type in all cases: functional
MCF7 = test: Cytotoxicity against human MCF7 cells assessed as cell growth at 0.01 uM after 48 hrs by sulforhodamine B assay relative to control; details: MCF7, 48 h, read-out: Activity
HCT-15 [1] = test: Cytotoxicity against human HCT15 cells assessed as cell growth at 0.1 uM after 48 hrs by sulforhodamine B assay relative to control; details: HCT-15, 48 h, read-out: Activity
SK-MEL-28 [2] = test: Cytotoxicity against human SK-MEL-28 cells assessed as cell growth at 0.1 uM after 48 hrs by sulforhodamine B assay relative to control; details: SK-MEL-28, 48 h, read-out: Activity
NCI-H460 [3] = test: Cytotoxicity against human NCI-H460 cells assessed as cell growth at 0.01 uM after 48 hrs by sulforhodamine B assay relative to control; details: NCI-H460, 48 h, read-out: Activity
SR = test: Cytotoxicity against human SR cells assessed as cell growth at 0.1 uM after 48 hrs by sulforhodamine B assay relative to control; details: read-out: Activity
UO-31 = test: Cytotoxicity against human UO31 cells assessed as cell growth at 0.1 uM after 48 hrs by sulforhodamine B assay relative to control; details: UO-31, 48 h, read-out: Activity
RXF 393 = test: Cytotoxicity against human RXF393 cells assessed as growth inhibition after 48 hrs by sulforhodamine B assay; details: RXF 393, 48 h
NCI-H322M [4] = test: Cytotoxicity against human NCI-H322M cells assessed as cell growth at 0.1 uM after 48 hrs by sulforhodamine B assay relative to control; details: read-out: Activity
A498 [5] = test: Cytotoxicity against human A498 cells assessed as cell growth at 10 uM after 48 hrs by sulforhodamine B assay relative to control; details: A498, 48 h, read-out: Activity
HL-60(TB) = test: Cytotoxicity against human HL-60(TB) cells assessed as cell growth at 10 uM after 48 hrs by sulforhodamine B assay relative to control; details: HL-60, 48 h, read-out: Activity
NCI-H460 [6] = test: Cytotoxicity against human NCI-H460 cells assessed as cell growth at 100 uM after 48 hrs by sulforhodamine B assay relative to control; details: NCI-H460, 48 h, read-out: Activity
HT-29 = test: Cytotoxicity against human HT-29 cells assessed as cell growth at 0.1 uM after 48 hrs by sulforhodamine B assay relative to control; details: HT-29, 48 h, read-out: Activity
UACC-257 [7] = test: Cytotoxicity against human UACC257 cells assessed as cell growth at 100 uM after 48 hrs by sulforhodamine B assay relative to control; details: UACC-257, 48 h, read-out: Activity
UACC-257 [8] = test: Cytotoxicity against human UACC257 cells assessed as cell growth at 10 uM after 48 hrs by sulforhodamine B assay relative to control; details: UACC-257, 48 h, read-out: Activity
SK-MEL-5 = test: Cytotoxicity against human SK-MEL-5 cells assessed as cell growth at 10 uM after 48 hrs by sulforhodamine B assay relative to control; details: SK-MEL-5, 48 h, read-out: Activity
SK-MEL-28 [9] = test: Cytotoxicity against human SK-MEL-28 cells assessed as cell growth at 10 uM after 48 hrs by sulforhodamine B assay relative to control; details: SK-MEL-28, 48 h, read-out: Activity
HOP-62 [10] = test: Cytotoxicity against human HOP62 cells assessed as cell growth at 100 uM after 48 hrs by sulforhodamine B assay relative to control; details: HOP-62, 48 h, read-out: Activity
COLO 205 = test: Cytotoxicity against human COLO205 cells assessed as growth inhibition after 48 hrs by sulforhodamine B assay; details: COLO 205, 48 h
NCI-H322M [11] = test: Cytotoxicity against human NCI-H322M cells assessed as cell growth at 100 uM after 48 hrs by sulforhodamine B assay relative to control; details: read-out: Activity
OVCAR-5 = test: Cytotoxicity against human OVCAR5 cells assessed as cell growth at 0.01 uM after 48 hrs by sulforhodamine B assay relative to control; details: OVCAR-5, 48 h, read-out: Activity
A498 [12] = test: Cytotoxicity against human A498 cells assessed as cell growth at 1 uM after 48 hrs by sulforhodamine B assay relative to control; details: A498, 48 h, read-out: Activity
MDA-MB-468 = test: Cytotoxicity against human MDA-MB-468 cells assessed as growth inhibition after 48 hrs by sulforhodamine B assay; details: MDA-MB-468, 48 h
HCT-15 [13] = test: Cytotoxicity against human HCT15 cells assessed as cell growth at 10 uM after 48 hrs by sulforhodamine B assay relative to control; details: HCT-15, 48 h, read-out: Activity
UACC-62 = test: Cytotoxicity against human UACC62 cells assessed as cell growth at 0.01 uM after 48 hrs by sulforhodamine B assay relative to control; details: UACC-62, 48 h, read-out: Activity
SN12C = test: Cytotoxicity against human SN12C cells assessed as cell growth at 1 uM after 48 hrs by sulforhodamine B assay relative to control; details: read-out: Activity
Hs-578T = test: Cytotoxicity against human Hs 578T cells assessed as cell growth at 1 uM after 48 hrs by sulforhodamine B assay relative to control; details: read-out: Activity
TK-10 = test: Cytotoxicity against human TK10 cells assessed as cell growth at 10 uM after 48 hrs by sulforhodamine B assay relative to control; details: TK-10, 48 h, read-out: Activity
DU-145 = test: Cytotoxicity against human DU145 cells assessed as cell growth at 10 uM after 48 hrs by sulforhodamine B assay relative to control; details: DU-145, 48 h, read-out: Activity
RPMI-8226 = test: Cytotoxicity against human RPMI8226 cells assessed as cell growth at 10 uM after 48 hrs by sulforhodamine B assay relative to control; details: RPMI-8226, 48 h, read-out: Activity
SF-268 = test: Cytotoxicity against human SF268 cells assessed as cell growth at 0.01 uM after 48 hrs by sulforhodamine B assay relative to control; details: SF-268, 48 h, read-out: Activity
PC-3 = test: Cytotoxicity against human PC3 cells assessed as cell growth at 1 uM after 48 hrs by sulforhodamine B assay relative to control; details: PC-3, 48 h, read-out: Activity
KM12 = test: Cytotoxicity against human KM12 cells assessed as cell growth at 0.01 uM after 48 hrs by sulforhodamine B assay relative to control; details: KM12, 48 h, read-out: Activity
NCI-H522 = test: Cytotoxicity against human NCI-H522 cells assessed as growth inhibition after 48 hrs by sulforhodamine B assay; details: NCI-H522, 48 h
HOP-62 [14] = test: Cytotoxicity against human HOP62 cells assessed as cell growth at 0.01 uM after 48 hrs by sulforhodamine B assay relative to control; details: HOP-62, 48 h, read-out: Activity
MOLT-4 = test: Cytotoxicity against human MOLT4 cells assessed as cell growth at 100 uM after 48 hrs by sulforhodamine B assay relative to control; details: MOLT-4, 48 h, read-out: Activity
HCT-116 = test: Cytotoxicity against human HCT116 cells assessed as growth inhibition after 48 hrs by sulforhodamine B assay; details: HCT-116, 48 h

## COc1ccc(C(=O)/C=C/c2cc(-c3cc(OC)c(OC)c(OC)c3)n[nH]2)cc1
MCF7
  growth at 0.01 µM: 101%
HCT-15 [1]
  growth at 0.1 µM: 100%
SK-MEL-28 [2]
  growth at 0.1 µM: 104%
NCI-H460 [3]
  growth at 0.01 µM: 103%
SR
  growth at 0.1 µM: 83%
UO-31
  growth at 0.1 µM: 96%
RXF 393
  LC50 (concentration killing 50% of cells): 5.17 µM
  TGI: 2.56 µM
NCI-H322M [4]
  growth at 0.1 µM: 96%
A498 [5]
  growth at 10 µM: -57%
HL-60(TB)
  growth at 10 µM: -47%
NCI-H460 [6]
  growth at 100 µM: -62%
HT-29
  growth at 0.1 µM: 102%
UACC-257 [7]
  growth at 100 µM: -4%
UACC-257 [8]
  growth at 10 µM: -65%
SK-MEL-5
  growth at 10 µM: -89%
SK-MEL-28 [9]
  growth at 10 µM: -55%
HOP-62 [10]
  growth at 100 µM: -79%
COLO 205
  LC50: 6.06 µM
  TGI: 3.24 µM
NCI-H322M [11]
  growth at 100 µM: -31%
OVCAR-5
  growth at 0.01 µM: 99%
A498 [12]
  growth at 1 µM: 84%
MDA-MB-468
  GI50: 1.29 µM
  LC50: 5.45 µM
  TGI: 2.65 µM
HCT-15 [13]
  growth at 10 µM: -41%
UACC-62
  growth at 0.01 µM: 100%
SN12C
  growth at 1 µM: 91%
Hs-578T
  growth at 1 µM: 96%
TK-10
  growth at 10 µM: -29%
DU-145
  growth at 10 µM: -93%
RPMI-8226
  growth at 10 µM: -41%
SF-268
  growth at 0.01 µM: 91%
PC-3
  growth at 1 µM: 76%
KM12
  growth at 0.01 µM: 99%
NCI-H522
  LC50: 6.97 µM
  TGI: 3.2 µM
HOP-62 [14]
  growth at 0.01 µM: 99%
MOLT-4
  growth at 100 µM: -4%
HCT-116
  LC50: > 100 µM
  TGI: 5.86 µM

## COc1ccc(-c2cc(/C=C/C(=O)c3ccc(N)cc3)[nH]n2)cc1OC
MCF7
  growth at 0.01 µM: 89%
HCT-15 [1]
  growth at 0.1 µM: 95%
SK-MEL-28 [2]
  growth at 0.1 µM: 93%
NCI-H460 [3]
  growth at 0.01 µM: 101%
SR
  growth at 0.1 µM: 104%
UO-31
  growth at 0.1 µM: 99%
RXF 393
  GI50: 2.15 µM
  LC50 (concentration killing 50% of cells): 15.9 µM
  TGI: 5.12 µM
NCI-H322M [4]
  growth at 0.1 µM: 102%
A498 [5]
  growth at 10 µM: -16%
HL-60(TB)
  growth at 10 µM: 10%
NCI-H460 [6]
  growth at 100 µM: -76%
HT-29
  growth at 0.1 µM: 107%
UACC-257 [7]
  growth at 100 µM: -96%
UACC-257 [8]
  growth at 10 µM: 39%
SK-MEL-5
  growth at 10 µM: 6%
SK-MEL-28 [9]
  growth at 10 µM: -29%
HOP-62 [10]
  growth at 100 µM: -98%
COLO 205
  GI50: 1.88 µM
  LC50: 6.87 µM
  TGI: 3.59 µM
NCI-H322M [11]
  growth at 100 µM: -88%
OVCAR-5
  growth at 0.01 µM: 91%
A498 [12]
  growth at 1 µM: 89%
MDA-MB-468
  GI50: 1.55 µM
  LC50: 7.8 µM
  TGI: 3.48 µM
HCT-15 [13]
  growth at 10 µM: -27%
UACC-62
  growth at 0.01 µM: 99%
SN12C
  growth at 1 µM: 93%
Hs-578T
  growth at 1 µM: 96%
TK-10
  growth at 10 µM: 56%
DU-145
  growth at 10 µM: 15%
RPMI-8226
  growth at 10 µM: -20%
SF-268
  growth at 0.01 µM: 100%
PC-3
  growth at 1 µM: 89%
KM12
  growth at 0.01 µM: 102%
NCI-H522
  GI50: 1.65 µM
  LC50: 6.3 µM
  TGI: 3.22 µM
HOP-62 [14]
  growth at 0.01 µM: 83%
MOLT-4
  growth at 100 µM: -22%
HCT-116
  GI50: 1.71 µM
  LC50: 7.19 µM
  TGI: 3.51 µM
